The text below walks through data of the supplement of paper PMC10307832.

What all share (assay): relative viability (nuclei count vs DMSO), 5 days (fraction); higher = more cells survive
Compound in the test “NVP-TAE684 + Luminespib”: COc1cc(N2CCC(N3CCN(C)CC3)CC2)ccc1Nc1ncc(Cl)c(Nc2ccccc2S(=O)(=O)C(C)C)n1 [NVP-TAE684] + CCNC(=O)c1noc(-c2cc(C(C)C)c(O)cc2O)c1-c1ccc(CN2CCOCC2)cc1 [Luminespib] (partner 0.01 µM)
Summed up:
(§1)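 Relative viability was taken as the ratio of nuclei in treated wells to nuclei in vehicle wells. Lung cancer cell lines in 1536-well plates received compounds by pin tool one day after seeding, either one drug alone or a fixed anchor-drug dose plus five library-drug doses (not always all listed) in √10 steps. Nuclei were counted on 4× images after 5 days of treatment, and values are medians of duplicate plates.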

Compound in the test “Vandetanib + Alpelisib”: COc1cc2/c(=N/c3ccc(Br)cc3F)nc[nH]c2cc1OCC1CCN(C)CC1 [Vandetanib] + Cc1nc(NC(=O)N2CCC[C@H]2C(N)=O)sc1-c1ccnc(C(C)(C)C(F)(F)F)c1 [Alpelisib] (partner 2 µM)
Summed up: as §1

Compound in the test “Vandetanib + Tozasertib”: COc1cc2/c(=N/c3ccc(Br)cc3F)nc[nH]c2cc1OCC1CCN(C)CC1 [Vandetanib] + Cc1cc(Nc2cc(N3CCN(C)CC3)nc(Sc3ccc(NC(=O)C4CC4)cc3)n2)n[nH]1 [Tozasertib] (partner 0.1 µM)
Put shortly:
as §1

Compound in the test “Vandetanib + Foretinib”: COc1cc2/c(=N/c3ccc(Br)cc3F)nc[nH]c2cc1OCC1CCN(C)CC1 [Vandetanib] + COc1cc2c(Oc3ccc(NC(=O)C4(C(=O)Nc5ccc(F)cc5)CC4)cc3F)ccnc2cc1OCCCN1CCOCC1 [Foretinib] (partner 0.25 µM)
Put shortly: as §1

Turning to UMC-11, the relative viability with NVP-TAE684 + Luminespib (first compound 0.2 µM) amounted to 0.879; with NVP-TAE684 + Luminespib (first compound 0.6325 µM) it was 0.946; in the test with NVP-TAE684 + Luminespib (first compound 2 µM) it was 0.297; in the test with Vandetanib + Alpelisib (first compound 0.02 µM), 0.897; with Vandetanib + Alpelisib (first compound 0.06325 µM) it was 0.975; with Vandetanib + Alpelisib (first compound 0.2 µM), 0.905. Also, the relative viability with Vandetanib + Alpelisib (first compound 0.6325 µM) worked out at 0.908; in the test with Vandetanib + Alpelisib (first compound 2 µM), 0.922; with Vandetanib + Tozasertib (first compound 0.02 µM) it was 0.204; with Vandetanib + Tozasertib (first compound 0.06325 µM), 0.187; in the test with Vandetanib + Tozasertib (first compound 0.2 µM), 0.175; in the test with Vandetanib + Tozasertib (first compound 0.6325 µM), 0.189. Moreover, the relative viability with Vandetanib + Tozasertib (first compound 2 µM) worked out at 0.205; with Vandetanib + Foretinib (first compound 0.02 µM), 1.05; with Vandetanib + Foretinib (first compound 0.06325 µM), 1.01; with Vandetanib + Foretinib (first compound 0.2 µM), 0.281; with Vandetanib + Foretinib (first compound 0.6325 µM), 0.962; with Vandetanib + Foretinib (first compound 2 µM) it was 0.97.
